Measured values reported in patent publication US20050107386A1, “Methods of treating diseases and disorders by targeting multiple kinases” (priority 2003, published 2005).

Assays:
Format in all cases: biochemical
Details in all cases: 3 μM; percent of control kinase activity
CDK6/cyclinD3(h) = CDK6/cyclinD3(h) (Homo sapiens, UniProt Q00534); experiment: CDK6/cyclinD3(h) kinase assay
Description: (§1) Six compounds (presumptive single agents) were tested against a panel of 50 kinases. The results are presented in Table 2; numbers for each kinase indicate the percent of control kinase activity in the presence of a 3μM concentration of the indicated agent.
(§2) Agents that target two or more different kinases are useful in the methods of the invention as described elsewhere herein. Such compounds may be identified, and their effect on certain kinases may be identified, using the assays briefly described below in Examples 4-83. Each of these assays was carried out as described in Davies et al., Biochem. J., 351:95-105 (2000). All assays were carried out at 10 μM ATP unless otherwise noted.
(§3) In a final reaction volume of 25 μl, CDK6/cyclinD3 (h) (5-10 mU) is incubated with 8 mM MOPS pH 7.0, 0.2 mM EDTA, 0.1 mg/ml histone H1, 10 mM MgAcetate and [γ-33p-ATP] (specific activity approx. 500 cpm/pmol, concentration as required). The reaction is initiated by the addition of Mg^2+ [γ-33P-ATP]. After incubation for 40 minutes at room temperature, the reaction is stopped by the addition of 5 μl of a 3% phosphoric acid solution. 10 μl of the reaction is then spotted onto a P30 filtermat and washed three times for 5 minutes in 75 mM phosphoric acid and once in methanol prior to drying and scintillation counting.

CHK1(h) = biological target: T1, CHK1(h) (Homo sapiens, UniProt O14757); experiment: CHK1(h) kinase assay
T1 sequence (O14757 1-476): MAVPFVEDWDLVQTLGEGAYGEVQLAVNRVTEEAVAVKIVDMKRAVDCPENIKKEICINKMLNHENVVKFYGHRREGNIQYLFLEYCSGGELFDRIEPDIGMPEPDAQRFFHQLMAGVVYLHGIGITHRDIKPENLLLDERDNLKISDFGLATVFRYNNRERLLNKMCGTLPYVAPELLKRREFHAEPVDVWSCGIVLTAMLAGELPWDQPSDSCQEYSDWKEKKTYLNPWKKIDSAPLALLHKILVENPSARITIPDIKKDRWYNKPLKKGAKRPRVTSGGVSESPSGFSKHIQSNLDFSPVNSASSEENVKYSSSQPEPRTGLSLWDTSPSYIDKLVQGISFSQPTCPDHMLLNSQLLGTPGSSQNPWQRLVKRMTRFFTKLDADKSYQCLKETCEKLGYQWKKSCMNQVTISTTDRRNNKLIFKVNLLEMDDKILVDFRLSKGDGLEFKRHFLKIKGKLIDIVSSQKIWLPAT
Description: as §1, §2
as §3, with “CHK1(h)” for “CDK6/cyclinD3 (h)”, “7.0,0.2” for “7.0, 0.2”, “200 μM […] (SEQ ID NO:5),” for “0.1 mg/ml histone H1,”, “[γ-^33P-ATP]” for “[γ-33p-ATP]”, “[γ-^33P-ATP].” for “[γ-33P-ATP].”

Fyn(h) = Fyn(h) (Homo sapiens, UniProt P06241); experiment: Fyn(h) kinase assay
Sequence of Fyn(h) (P06241 whole entry): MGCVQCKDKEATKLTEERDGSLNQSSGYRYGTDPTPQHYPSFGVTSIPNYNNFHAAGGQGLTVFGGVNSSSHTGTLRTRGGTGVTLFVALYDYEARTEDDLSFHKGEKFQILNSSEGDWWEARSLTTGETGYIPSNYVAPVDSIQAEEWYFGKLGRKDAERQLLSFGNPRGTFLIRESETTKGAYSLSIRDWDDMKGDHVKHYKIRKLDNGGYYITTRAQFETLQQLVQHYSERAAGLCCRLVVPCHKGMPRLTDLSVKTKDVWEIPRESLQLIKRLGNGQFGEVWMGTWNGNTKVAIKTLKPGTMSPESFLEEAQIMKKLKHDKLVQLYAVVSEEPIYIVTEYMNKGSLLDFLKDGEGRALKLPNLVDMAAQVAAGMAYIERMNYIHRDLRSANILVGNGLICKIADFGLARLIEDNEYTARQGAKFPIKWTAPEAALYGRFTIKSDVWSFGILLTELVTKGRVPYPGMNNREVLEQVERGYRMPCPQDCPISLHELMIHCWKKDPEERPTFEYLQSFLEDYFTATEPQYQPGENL
Description: as §1, §2
(§4) In a final reaction volume of 25 μl, Fyn (h) (5-10 mU) is incubated with 50 mM Tris pH 7.5, 0.1 mM EGTA, 0.1 mM NaVanadate, 250 μM […] (Cdc2 peptide; SEQ ID NO:7), 10 mM MgAcetate and [γ-^33P-ATP] (specific activity approx. 500 cpm/pmol, concentration as required). The reaction is initiated by the addition of Mg^2+ [γ-^33P-ATP]. After incubation for 40 minutes at room temperature, the reaction is stopped by the addition of 5 μl of a 3% phosphoric acid solution. 10 μl of the reaction is then spotted onto a P30 filtermat and washed three times for 5 minutes in 75 mM phosphoric acid and once in methanol prior to drying and scintillation counting.

PKCε(h) = biological target: T2, PKCε(h) (Homo sapiens, UniProt Q02156); experiment: PKCε(h) kinase assay
T2 sequence (Q02156 1-737): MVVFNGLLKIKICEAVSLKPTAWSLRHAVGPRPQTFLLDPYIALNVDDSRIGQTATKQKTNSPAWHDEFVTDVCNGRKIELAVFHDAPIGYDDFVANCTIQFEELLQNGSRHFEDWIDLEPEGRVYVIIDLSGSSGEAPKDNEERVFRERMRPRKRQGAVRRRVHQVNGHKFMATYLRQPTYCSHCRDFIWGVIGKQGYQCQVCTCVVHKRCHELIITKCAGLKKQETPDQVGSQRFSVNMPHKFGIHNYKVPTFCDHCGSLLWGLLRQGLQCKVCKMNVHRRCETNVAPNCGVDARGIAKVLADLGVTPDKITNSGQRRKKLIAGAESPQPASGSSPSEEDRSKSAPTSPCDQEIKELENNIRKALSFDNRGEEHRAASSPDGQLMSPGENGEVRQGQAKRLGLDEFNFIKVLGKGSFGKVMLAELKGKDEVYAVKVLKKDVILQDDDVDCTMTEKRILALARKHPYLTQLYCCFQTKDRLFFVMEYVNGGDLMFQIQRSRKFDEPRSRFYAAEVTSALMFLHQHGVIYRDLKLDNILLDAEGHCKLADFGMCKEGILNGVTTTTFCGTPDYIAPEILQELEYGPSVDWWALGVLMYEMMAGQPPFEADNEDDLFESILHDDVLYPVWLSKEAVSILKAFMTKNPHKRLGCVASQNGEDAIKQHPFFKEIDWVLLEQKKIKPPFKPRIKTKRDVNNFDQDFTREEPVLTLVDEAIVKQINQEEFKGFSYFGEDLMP
Description: as §1, §2
as §4, with “PKCε(h)” for “Fyn (h)”, “with 20 mM Hepes pH 7.4, 0.03% Triton X-100, 0.1 mg/ml phosphatidylserine, 10 μg/ml diacylglycerol,” for “with”, “50” for “50 mM Tris pH 7.5, 0.1 mM EGTA, 0.1 mM NaVanadate, 250”, “(SEQ” for “(Cdc2 peptide; SEQ”, “NO: 18),” for “NO:7),”, “(Specific” for “(specific”

Sequence of CDK6/cyclinD3(h) (Q00534 whole entry): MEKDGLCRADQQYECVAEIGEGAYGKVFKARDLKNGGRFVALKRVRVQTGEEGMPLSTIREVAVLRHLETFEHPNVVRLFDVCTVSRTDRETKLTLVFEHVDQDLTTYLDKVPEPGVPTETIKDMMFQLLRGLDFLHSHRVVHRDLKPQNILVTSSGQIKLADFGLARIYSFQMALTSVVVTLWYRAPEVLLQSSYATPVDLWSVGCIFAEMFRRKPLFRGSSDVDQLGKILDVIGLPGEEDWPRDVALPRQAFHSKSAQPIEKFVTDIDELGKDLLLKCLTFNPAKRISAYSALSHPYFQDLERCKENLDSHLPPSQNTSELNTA
Sequence of CDK6/cyclinD3(h) (P30281 whole entry partner): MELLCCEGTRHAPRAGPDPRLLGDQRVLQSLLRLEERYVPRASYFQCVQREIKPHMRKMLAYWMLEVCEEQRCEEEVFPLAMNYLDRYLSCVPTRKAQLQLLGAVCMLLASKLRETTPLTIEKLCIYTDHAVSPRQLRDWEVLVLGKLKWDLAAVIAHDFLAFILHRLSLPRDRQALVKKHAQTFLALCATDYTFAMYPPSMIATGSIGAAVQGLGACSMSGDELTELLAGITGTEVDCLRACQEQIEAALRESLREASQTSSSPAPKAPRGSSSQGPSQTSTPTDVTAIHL

SMILES | Inhibitory activity (% of control), CDK6/cyclinD3(h) (CDK6/cyclinD3(h)) | Inhibitory activity (% of control), CHK1(h) (CHK1(h)) | Inhibitory activity (% of control), Fyn(h) (Fyn(h)) | Inhibitory activity (% of control), PKCε(h) (PKCε(h))
COc1ccc2cc(-c3n[nH]c4ccc(-c5n[nH]c(CN6CCOCC6)n5)cc34)ccc2c1 [CC001, 3-(6-Methoxynaphthalen-2-yl)-5-(5-Morpholin-4-Ylmethyl-1H-[1,2,4]Triazol-3-yl)-1H-Indazole] | 82 % of control | 36 % of control | 14 % of control | 82 % of control
Fc1ccc(-c2n[nH]c3ccc(-c4n[nH]c(C5CCCC5)n4)cc23)cc1 [CC006, 5-(5-Cyclopentyl-1H-[1,2,4]triazol-3-yl)-3-(4-fluoro-phenyl)-1H-indazole, reference compound] | 63 % of control | 70 % of control | 65 % of control | 82 % of control
O=C(NC1CCCC1)c1cccc(-c2n[nH]c3ccc(-c4nc[nH]n4)cc23)c1 [CC007, 3-(5-(1H-1,2,4-triazol-3-yl)(1H-indazol-3-yl))phenyl-N-cyclopentylcarboxamide, reference compound] | 87 % of control | 90 % of control | 66 % of control | 79 % of control

Second part, the compound after the results:

Inhibitory activity (% of control), CDK6/cyclinD3(h) (CDK6/cyclinD3(h)) | Inhibitory activity (% of control), CHK1(h) (CHK1(h)) | Inhibitory activity (% of control), Fyn(h) (Fyn(h)) | Inhibitory activity (% of control), PKCε(h) (PKCε(h)) | SMILES
59 % of control | 12 % of control | 4 % of control | 58 % of control | CC(C)Cc1nc(-c2ccc3[nH]nc(-c4ccc5cc(OCCN6CCCC6)ccc5c4)c3c2)n[nH]1 [CC002, 5-(5-Isobutyl-1H-[1,2,4]Triazol-3-yl)-3-[6-(2-Pyrrolidin-1-yl-Ethoxy)-Naphthalen-2-yl]-1H-Indazole]
80 % of control | 64 % of control | 67 % of control | 105 % of control | CC(C)(C)Cc1nc(-c2ccc3[nH]nc(-c4ccc5cc(OCc6ccccn6)ccc5c4)c3c2)n[nH]1 [CC004, 5-[5-(2,2-Dimethyl-propyl)-1H-[1,2,4]triazol-3-yl]-3-[6-(pyridine-2-ylmethoxy)-naphthalen-2-yl]-1H-indazole]
29 % of control | 6 % of control | 4 % of control | 84 % of control | CCN1CCC[C@H]1COc1ccc2cc(-c3n[nH]c4ccc(-c5nc(CC(C)(C)C)n[nH]5)cc34)ccc2c1 [CC005, 2-[((2s)-1-ethylpyrrolidin-2-yl)methoxy]-6-{5-[3-(2,2-Dimethylpropyl)(1H-1,2,4,-triazol-5-yl)](1H-indazol-3-yl)}naphthalene]
